Bounds are passed on as bounds.

In the assay the target is T1, GST-tagged ROR gamma ligand binding domain (LBD) (Homo sapiens, UniProt P51449).
T1 construct: purchased Invitrogen
T1 sequence (P51449 269-508 limits assumed): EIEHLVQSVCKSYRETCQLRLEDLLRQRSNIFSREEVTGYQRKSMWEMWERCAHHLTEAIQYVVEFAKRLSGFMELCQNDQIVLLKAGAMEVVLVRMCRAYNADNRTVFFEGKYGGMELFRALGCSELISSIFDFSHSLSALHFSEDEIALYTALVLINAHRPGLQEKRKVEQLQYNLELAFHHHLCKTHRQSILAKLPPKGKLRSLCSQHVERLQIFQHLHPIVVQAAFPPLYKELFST
Kind of assay: TR-FRET assay for ROR gamma (LanthaScreen, Fluorescein-D22 co-activator peptide recruitment). The following applies: for inhibition at 1 µM: 1 μM compound; for inhibition at 1 µM / inhibition at 10 µM: TR-FRET ratio 520/495; for inhibition at 10 µM: 10 μM compound; for IC50: dose response curve, class symbols. It counts as biochemical. From the text: The compounds described herein were screened for ROR gamma modulator activity using the TR-FRET assay (LanthaScreen™ available from Invitrogen of Carlsbad, Calif.) as described in JBC 2011, 286, 26: 22707-10; and Drug Metabolism and Disposition 2009, 37, 10: 2069-78.
The assay is based on the principle that binding of the agonist to the ROR gamma causes a conformational change around helix 12 in the ligand binding domain, resulting in higher affinity for the co-activator peptide. ROR gamma being constitutively active, the Fluorescein-D22 co-activator peptide used in the assay is recruited in the absence of a ligand. Binding of the co-activator peptide, causes an increase in the TR-FRET signal while binding of an antagonist decreases the recruitment of the co-activator peptide, causing a decrease in the TR-FRET signal compared to control with no compound. The assay was performed using a two-step procedure, pre-incubation step with the compound followed by the detection step on addition of the anti-GST tagged terbium (Tb) and fluorescein tagged fluorophores as the acceptor.
Test compounds or reference compounds such as T0901317 (Calbiochem) were dissolved in dimethylsulfoxide (DMSO) to prepare 10.0 mM stock solutions and diluted to the desired concentration. The final concentration of DMSO in the reaction was 4% (v/v). The assay mixture was prepared by mixing 10 nM of the GST-tagged ROR gamma ligand binding domain (LBD) in the assay buffer containing 25 mM HEPES, 100 mM NaCl, 5 mM DTT and 0.01% BSA with or without the desired concentration of the compound. The reaction was incubated at 22° C. for 1 hour. The pre-incubation step was terminated by addition of the detection mixture containing 300 nM Fluorescein-D22 co-activator peptide and 10 nM lantha screen Tb-anti GST antibody into the reaction mixture. After shaking for 5 minutes the reaction was further incubated for 1 hour at room temperature and read […] on an Infinite F500 reader as per the kit instructions (Invitrogen). The inhibition of test compound was calculated based on the TR-FRET ratio of 520/495. The activity was calculated as a percent of control reaction. IC50 values were calculated from dose response curve by nonlinear regression analysis using GraphPad Prism software.
Percentage inhibition at concentrations of 1.0 μM and 10.0 μM are given in the table along with IC50 (nM) details for selected examples.
(In general: TR-FRET usually uses a lanthanide donor and a delayed reading to cut background.)

For `CCOC(=O)C(F)(F)c1ccc(CC(=O)Nc2ccc(C(=O)N(C)c3ccc(Cl)cc3)cc2)cc1` [Example 1, Ethyl 2-(4-(2-((4-((4-chlorophenyl)(methyl)carbamoyl)phenyl)amino)-2-oxoethyl)phenyl)-2,2-difluoroacetate], the inhibition (in general, the change of the read-out against control, counted positive when it falls) at 1 µM turned out to be 27.6% and the inhibition at 10 µM was determined as 64.5%.

Regarding `CN(C(=O)c1ccc(NC(=O)Cc2ccc(C(F)(F)C(N)=O)cc2)cc1)c1ccc(Cl)cc1` [Example 2, 4-(2-(4-(2-amino-1,1-difluoro-2-oxoethyl)phenyl)acetamido)-N-(4-chlorophenyl)-N-methylbenzamide], the inhibition at 1 µM was 20.7% and the inhibition at 10 µM worked out at 43.4%.

For `CN(C(=O)c1ccc(NC(=O)Cc2ccc(C(F)(F)CO)cc2)cc1)c1ccc(Cl)cc1` [Example 3, N-(4-chlorophenyl)-4-(2-(4-(1,1-difluoro-2-hydroxyethyl)phenyl)acetamido)-N-methylbenzamide], the inhibition at 1 µM turned out to be 75%, the inhibition at 10 µM came out at 85.8% and the IC50 (commonly the concentration that gives 50% inhibition) is more than 100 nM.

Turning to `CCC(F)(F)c1ccc(CC(=O)Nc2ccc(C(=O)N(C)c3cc(Cl)ccc3Cl)cc2)cc1` [Example 4], the inhibition at 1 µM came to 88.5%, the inhibition at 10 µM stood at 91.1% and the concentration for half-maximal inhibition (IC50) was less than 50 nM.

Turning to `CC(O)C(F)(F)c1ccc(CC(=O)Nc2ccc(C(=O)N(C)c3cc(Cl)ccc3Cl)cc2)cc1` (stereo not drawn) [Example 5, N-(2,5-Dichlorophenyl)-4-(2-(4-(1,1-difluoro-2-hydroxypropyl)phenyl)acetamido)-N-methylbenzamide], the inhibition at 1 µM came to 87.6%, the inhibition at 10 µM is 94.3% and the IC50 is less than 50 nM.

With `CCC(F)(F)c1ccc(CC(=O)Nc2ccc(C(=O)N(C)c3ccccc3Cl)cc2)cc1` [Example 6], the inhibition at 1 µM worked out at 90.9%, the inhibition at 10 µM is 91.2% and the IC50 was less than 50 nM.

In the case of `Cc1cc(C)cc(N(C)C(=O)c2ccc(NC(=O)Cc3ccc(C(F)(F)CO)cc3)cc2)c1` [Example 7], the inhibition at 1 µM stood at 87.5%, the inhibition at 10 µM was determined as 95.1% and the IC50 was less than 50 nM.

`Cc1cc(C)cc(N(C)C(=O)c2ccc(NC(=O)Cc3ccc(C(F)(F)C(C)O)cc3)cc2)c1` (stereo not drawn) [Example 8]: the inhibition at 1 µM was found to be 94.8%, the inhibition at 10 µM came out at 96.5% and the IC50 is less than 50 nM.

With `Cc1cc(C)cc(N(C)C(=O)c2ccc(NC(=O)Cc3ccc(C(F)(F)C(C)(C)O)cc3)cc2)c1` [Example 9, 4-(2-(4-(1,1-difluoro-2-hydroxy-2-methylpropyl)phenyl)acetamido)-N-(3,5-dimethylphenyl)-N-methylbenzamide], the inhibition at 1 µM worked out at 86.2%, the inhibition at 10 µM is 97% and the IC50 is more than 100 nM.

For the compound `COCC(F)(F)c1ccc(CC(=O)Nc2ccc(C(=O)N(C)c3cc(C)cc(C)c3)cc2)cc1` [Example 10], the inhibition at 1 µM amounted to 93.2%, the inhibition at 10 µM worked out at 95.3% and the IC50 was less than 50 nM.

With `CCC(F)(F)c1ccc(CC(=O)Nc2ccc(C(=O)N(C)c3cc(C)cc(C)c3)cc2)cc1` [Example 11], the inhibition at 1 µM came to 90.1%, the inhibition at 10 µM worked out at 92.9% and the IC50 was less than 50 nM.

For the compound `Cc1cc(-c2ccccc2F)cc(N(C)C(=O)c2ccc(NC(=O)Cc3ccc(C(F)(F)C(C)O)cc3)cc2)c1` (stereo not drawn) [Example 12], the inhibition at 1 µM was found to be 89.4%, the inhibition at 10 µM worked out at 93.7% and the IC50 fell in the range of 50 to 100 nM.

Turning to `CCC(F)(F)c1ccc(CC(=O)Nc2ccc(C(=O)N(C)c3cc(C)cc(-c4ccccc4F)c3)cc2)cc1` [Example 13], the inhibition at 1 µM is 87.5%, the inhibition at 10 µM was 90.6% and the IC50 was 50 to 100 nM.

Regarding `CCC(F)(F)c1ccc(CC(=O)Nc2ccc(C(=O)N(CC(F)(F)F)c3cccc(Cl)c3)cc2)cc1` [Example 14], the inhibition at 1 µM came to 84%, the inhibition at 10 µM came to 87.6% and the IC50 was less than 50 nM.

For the compound `CC(O)C(F)(F)c1ccc(CC(=O)Nc2ccc(C(=O)N(C)c3ccccc3Cl)cc2)cc1` (stereo not drawn) [Example 15], the inhibition at 1 µM turned out to be 85.5%, the inhibition at 10 µM is 92.8% and the IC50 was less than 50 nM.

`COCC(F)(F)c1ccc(CC(=O)Nc2ccc(C(=O)N(C)[C@H](C)c3ccc(Cl)cc3)cc2)cc1` [Example 16]: the inhibition at 1 µM is 84.5%, the inhibition at 10 µM was 93.7% and the IC50 is more than 100 nM.

With `CCC(F)(F)c1ccc(CC(=O)Nc2ccc(C(=O)N(C)[C@H](C)c3ccc(Cl)cc3)cc2)cc1` [Example 17], the inhibition at 1 µM worked out at 87.1%, the inhibition at 10 µM came out at 90.8% and the IC50 is less than 50 nM.

In the case of `CCC(F)(F)c1ccc(CC(=O)Nc2ccc(C(=O)N(C)[C@@H](c3ccc(Cl)cc3)C3CC3)cc2)cc1` [Example 18], the inhibition at 1 µM was determined as 87.4%, the inhibition at 10 µM came out at 90% and the IC50 is less than 50 nM.

Regarding `CC(O)C(F)(F)c1ccc(CC(=O)Nc2ccc(C(=O)N(C)[C@@H](c3ccc(Cl)cc3)C3CC3)cc2)cc1` (stereo partly drawn) [Example 19], the inhibition at 1 µM was 82.6%, the inhibition at 10 µM was 92.8% and the IC50 was in the range of 50 to 100 nM.

For `CCC(F)(F)c1ccc(CC(=O)Nc2ccc(C(=O)N(C)[C@@H](C)c3ccc(Cl)cc3)cc2)cc1` [Example 20], the inhibition at 1 µM came to 61.5% and the inhibition at 10 µM came out at 75%.

With `CC(O)C(F)(F)c1ccc(CC(=O)Nc2ccc(C(=O)N(C)c3cc(Cl)cc(Cl)c3)cc2)cc1` (stereo not drawn) [Example 21, N-(3,5-dichlorophenyl)-4-(2-(4-(1,1-difluoro-2-hydroxypropyl)phenyl)acetamido)-N-methylbenzamide], the inhibition at 1 µM turned out to be 82.2%, the inhibition at 10 µM was determined as 87.9% and the IC50 is less than 50 nM.

Turning to `Cc1ccc(N(C)C(=O)c2ccc(NC(=O)Cc3ccc(C(F)(F)C(C)O)cc3)cc2)c(Cl)c1` (stereo not drawn) [Example 23], the inhibition at 1 µM turned out to be 88.8%, the inhibition at 10 µM was determined as 93.2% and the IC50 was less than 50 nM.

As for `Cc1cc(Cl)ccc1N(C)C(=O)c1ccc(NC(=O)Cc2ccc(C(F)(F)C(C)O)cc2)cc1` (stereo not drawn) [Example 24], the inhibition at 1 µM was 82.6%, the inhibition at 10 µM turned out to be 88.7% and the IC50 is less than 50 nM.

Regarding `CC(O)C(F)(F)c1ccc(CC(=O)Nc2ccc(C(=O)N(C)c3ccc(Cl)cc3Cl)cc2)cc1` (stereo not drawn) [Example 25], the inhibition at 1 µM is 82%, the inhibition at 10 µM worked out at 90% and the IC50 was less than 50 nM.

For `CC(O)C(F)(F)c1ccc(CC(=O)Nc2ccc(C(=O)N(C)c3cccc(Cl)c3F)cc2)cc1` (stereo not drawn) [Example 26], the inhibition at 1 µM was 86.4%, the inhibition at 10 µM stood at 93.2% and the IC50 was less than 50 nM.

Regarding `Cc1ccc(Cl)c(N(C)C(=O)c2ccc(NC(=O)Cc3ccc(C(F)(F)C(C)O)cc3)cc2)c1` (stereo not drawn) [Example 27], the inhibition at 1 µM is 90.1%, the inhibition at 10 µM came out at 92% and the IC50 was less than 50 nM.

On to `Cc1ccc(F)c(N(C)C(=O)c2ccc(NC(=O)Cc3ccc(C(F)(F)C(C)O)cc3)cc2)c1` (stereo not drawn) [Example 28], for which the inhibition at 1 µM turned out to be 90.5%, the inhibition at 10 µM is 93.9% and the IC50 was less than 50 nM.

As for `Cc1ccc(N(C)C(=O)c2ccc(NC(=O)Cc3ccc(C(F)(F)[C@@H](C)O)cc3)cc2)c(Cl)c1` [Example 29, (R)—N-(2-Chloro-4-methylphenyl)-4-(2-(4-(1,1-difluoro-2-hydroxypropyl)phenyl)acetamido)-N-methylbenzamide], the inhibition at 1 µM was 80.7%, the inhibition at 10 µM turned out to be 87.1% and the IC50 was less than 50 nM.

On to `Cc1ccc(N(C)C(=O)c2ccc(NC(=O)Cc3ccc(C(F)(F)[C@H](C)O)cc3)cc2)c(Cl)c1` [Example 30, (S)—N-(2-Chloro-4-methylphenyl)-4-(2-(4-(1,1-difluoro-2-hydroxypropyl)phenyl)acetamido)-N-methylbenzamide], for which the inhibition at 1 µM was found to be 85.5%, the inhibition at 10 µM is 88.7% and the IC50 was less than 50 nM.
